Experimental data as given in patent publication US9555039B2, “Piperidine derivatives and compositions for the inhibition of nicotinamide phosphoribosyltransferase (NAMPT)” (Forma TM, LLC., priority 2011, dated 2017).

Assays:
[1] = molecular target: T1, Recombinant His-tagged NAMPT (Homo sapiens, UniProt P43490); assay: Biochemical inhibition assay: NAMPT enzymatic reaction, NMN quantified by mass spectrometry; conditions: 33 nM NAMPT, 1 μM NAM, 100 μM PRPP, 2.5 mM ATP, 30 minutes at room temperature; read-out: Biochem IC50
T1 construct: His; host or cells: E. coli
Description: Biochemical Inhibition Assay
NAMPT Protein Purification
Recombinant His-tagged NAMPT was produced in E. coli cells, purified over a Ni column, and further purified over a size-exclusion column by XTAL Biostructures.
The NAMPT Enzymatic Reaction
The NAMPT enzymatic reactions were carried out in Buffer A (50 mM Hepes pH 7.5, 50 mM NaCl, 5 mM MgCl2, and 1 mM THP) in 96-well V-bottom plates. The compound titrations were performed in a separate dilution plate by serially diluting the compounds in DMSO to make a 100× stock. […] The compound and enzyme mix was incubated for 15 minutes at room temperature, then 10 μL of 10× substrate and co-factors in Buffer A were added to the test well to make a final concentration of 1 μM NAM, 100 μM 5-Phospho-D-ribose 1-diphosphate (PRPP), and 2.5 mM Adenosine 5′-triphosphate (ATP). The reaction was allowed to proceed for 30 minutes at room temperature, then was quenched with the addition of 11 μL of a solution of formic acid and L-Cystathionine to make a final concentration of 1% formic acid and 10 μM L-Cystathionine. Background and signal strength was determined by addition (or non-addition) of a serial dilution of NMN to a pre-quenched enzyme and cofactor mix.
A mass spectrometry-based assay was used to measure the Nampt reaction product (NMN) and the internal control (L-Cystathionine). NMN and L-Cystathionine were detected using the services of Biocius Lifesciences with the RapidFire system. In short, the NMN and L-Cystathionine are bound to a graphitic carbon cartridge in 0.1% formic acid, eluted in 30% acetonitrile buffer, and injected into a Sciex 4000 mass spectrometer. The components of the sample were ionized with electrospray ionization and the positive ions were detected. […] The fragments are quantified and the analyzed by the following method.
First the NMN signal is normalized to the L-Cystathionine signal by dividing the NMN signal by the L-Cystathionine signal for each well. The signal from the background wells are averaged and subtracted from the test plates.
Wherein x denotes the average signal of the compound treated wells and y denotes the average signal of the DMSO treated wells.
IC50s are Determined Using Excel and this Formula.
Wherein X denotes the compound concentration 1, Y denotes the compound concentration 2, XX denotes the % inhibition at compound concentration 1 (X), and YY denotes the % inhibition at compound concentration 2 (Y).

A2780 cells = assay: In-vitro cell proliferation assay (SRB, 72 hours); type: cell-based; conditions: Homo sapiens, sulforhodamine B (SRB) assay
Description: In-Vitro Cell Proliferation Assay
After overnight incubation at 37° C. and 5% CO2, the compound titrations were performed in a separate dilution plate by serially diluting the compounds in DMSO to make a 1000× stock. The compounds were then further diluted to 10× final concentration in culture media, whereupon 20 μL of each dilution was added to the plated cells with controls (e.g. DMSO and blank) to make a final volume of 200 μL. The final DMSO concentration in each well was 0.1%. The plates were then incubated for 72 hours at 37° C. in a 5% CO2 incubator. The number of viable cells was then assessed using sulforhodamine B (SRB) assay. Cells were fixed at 4° C. for 1 hour with the addition of 50 μL 30% trichloroacetic acid (TCA) to make a final concentration of 6% TCA. The plates were washed four times with H2O and allowed to dry for at least 1 hour, whereupon 100 μL of a 4% SRB in 1% acetic acid solution was added to each well and incubated at room temperature for at least 30 minutes. The plates were then washed three times with 1% acetic acid, dried, and treated with 100 μL of 10 mM Tris-Base solution. The plates were then read in a microplate reader at an absorbance of 570 nm. Background was generated on a separate plate with media only.
Method for Determining % Inhibition
First, the signals from the background plate are averaged, then the background was subtracted from the test plates.
wherein x denotes the average signal of the compound-treated cells and y denotes the average signal of the DMSO-treated cells.
wherein X denotes the compound concentration 1, Y denotes the compound concentration 2, XX denotes the % inhibition at compound concentration 1 (X), and YY denotes the % inhibition at compound concentration 2 (Y).

T1 sequence (P43490 whole entry): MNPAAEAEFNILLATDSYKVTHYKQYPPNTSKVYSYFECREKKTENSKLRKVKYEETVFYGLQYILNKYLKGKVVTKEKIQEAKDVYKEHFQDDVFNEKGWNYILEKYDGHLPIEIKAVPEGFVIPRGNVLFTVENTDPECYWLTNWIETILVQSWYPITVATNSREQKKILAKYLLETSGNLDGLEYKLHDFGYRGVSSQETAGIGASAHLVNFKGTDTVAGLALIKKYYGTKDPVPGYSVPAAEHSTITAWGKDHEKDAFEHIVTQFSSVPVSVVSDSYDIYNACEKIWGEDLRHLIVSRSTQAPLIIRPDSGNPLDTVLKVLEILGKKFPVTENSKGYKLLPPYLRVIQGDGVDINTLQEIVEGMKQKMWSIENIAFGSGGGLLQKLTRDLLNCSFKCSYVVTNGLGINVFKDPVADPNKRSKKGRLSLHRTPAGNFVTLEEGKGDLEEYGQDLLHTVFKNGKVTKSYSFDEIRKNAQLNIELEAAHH

Compound | IC50 [1] | IC50 (A2780 cells)
Cn1cc(CC(=O)N2CCC(CCCCNC(=O)c3ccc4nccn4c3)CC2)c2ccccc21 [N-(4-{1-[2-(1-methyl-1H-indol-3-yl)acetyl]piperidin-4-yl}butyl)imidazo[1,2-a]pyridine-6-carboxamide] | 0.0295 µM | 0.0213 µM
Cn1cc(CC(=O)N2CCC(CCCCNC(=O)c3cc4ccncc4s3)CC2)c2ccccc21 [N-(4-{1-[2-(1-methyl-1H-indol-3-yl)acetyl]piperidin-4-yl}butyl)thieno[2,3-c]pyridine-2-carboxamide] | 0.0116 µM | 0.024 µM
Cc1nc(CC(=O)N2CCC(CCCCNC(=O)c3cc4cnccc4[nH]3)CC2)cs1 [N-(4-{1-[2-(2-methyl-1,3-thiazol-4-yl)acetyl]piperidin-4-yl}butyl)-1H-pyrrolo[3,2-c]pyridine-2-carboxamide] | 0.0494 µM | 0.0139 µM
Cc1nc(CC(=O)N2CCC(CCCCNC(=O)c3ccc4nccn4c3)CC2)cs1 [N-(4-{1-[2-(2-methyl-1,3-thiazol-4-yl)acetyl]piperidin-4-yl}butyl)imidazo[1,2-a]pyridine-6-carboxamide] | 0.0189 µM | 0.028 µM
Cc1nc(CC(=O)N2CCC(CCCCNC(=O)c3cc4ccncc4s3)CC2)cs1 [N-(4-{1-[2-(2-methyl-1,3-thiazol-4-yl)acetyl]piperidin-4-yl}butyl)thieno[2,3-c]pyridine-2-carboxamide] | 0.0135 µM | 0.0282 µM
O=C(NCCCCC1CCN(S(=O)(=O)c2ccc(C(F)(F)F)nc2)CC1)c1cc2cnccc2[nH]1 [N-(4-{1-[6-(trifluoromethyl)pyridine-3-sulfonyl]piperidin-4-yl}butyl)-1H-pyrrolo[3,2-c]pyridine-2-carboxamide] | 0.0815 µM | 0.0298 µM
O=C(NCCCCC1CCN(C(=O)c2ccc3ncsc3c2)CC1)c1cc2cnccc2[nH]1 [N-(4-{1-[(1,3-benzothiazol-6-yl)carbonyl]piperidin-4-yl}butyl)-1H-pyrrolo[3,2-c]pyridine-2-carboxamide] | 0.0727 µM | 0.0126 µM
O=C(NCCCCC1CCN(C(=O)c2ccc3ncsc3c2)CC1)c1ccc2nccn2c1 [N-(4-{1-[(1,3-benzothiazol-6-yl)carbonyl]piperidin-4-yl}butyl)imidazo[1,2-a]pyridine-6-carboxamide] | 0.0237 µM | 0.0393 µM
O=C(NCCCCC1CCN(C(=O)c2ccc3ncsc3c2)CC1)c1cc2ccncc2s1 [N-(4-{1-[(1,3-benzothiazol-6-yl)carbonyl]piperidin-4-yl}butyl)thieno[2,3-c]pyridine-2-carboxamide] | 0.0323 µM | 0.0354 µM
CC(=O)N1CCC(C(=O)N2CCC(CCCCNC(=O)c3cc4cnccc4[nH]3)CC2)CC1 [N-(4-{1-[(1-acetylpiperidin-4-yl)carbonyl]piperidin-4-yl}butyl)-1H-pyrrolo[3,2-c]pyridine-2-carboxamide] | 0.134 µM | 0.0239 µM
CC(=O)N1CCC(C(=O)N2CCC(CCCCNC(=O)c3ccc4nccn4c3)CC2)CC1 [N-(4-{1-[(1-acetylpiperidin-4-yl)carbonyl]piperidin-4-yl}butyl)imidazo[1,2-a]pyridine-6-carboxamide] | 0.0396 µM | 0.0278 µM
O=C(NCCCCC1CCN(C(=O)c2cc3ccccc3s2)CC1)c1cc2cnccc2[nH]1 [N-(4-{1-[(1-benzothiophen-2-yl)carbonyl]piperidin-4-yl}butyl)-1H-pyrrolo[3,2-c]pyridine-2-carboxamide] | 0.124 µM | 0.0699 µM
O=C(NCCCCC1CCN(C(=O)c2cc3ccccc3s2)CC1)c1ccc2nccn2c1 [N-(4-{1-[(1-benzothiophen-2-yl)carbonyl]piperidin-4-yl}butyl)imidazo[1,2-a]pyridine-6-carboxamide] | 0.0258 µM | 0.0718 µM
O=C(NCCCCC1CCN(C(=O)c2cc3ccccc3s2)CC1)c1cc2ccncc2s1 [N-(4-{1-[(1-benzothiophen-2-yl)carbonyl]piperidin-4-yl}butyl)thieno[2,3-c]pyridine-2-carboxamide] | 0.0177 µM | 0.1 to 1 µM
Cn1ccnc1C(=O)N1CCC(CCCCNC(=O)c2cc3cnccc3[nH]2)CC1 [N-(4-{1-[(1-methyl-1H-imidazol-2-yl)carbonyl]piperidin-4-yl}butyl)-1H-pyrrolo[3,2-c]pyridine-2-carboxamide] | 0.0765 µM | 0.0236 µM
Cn1cnc(C(=O)N2CCC(CCCCNC(=O)c3cc4cnccc4[nH]3)CC2)c1 [N-(4-{1-[(1-methyl-1H-imidazol-4-yl)carbonyl]piperidin-4-yl}butyl)-1H-pyrrolo[3,2-c]pyridine-2-carboxamide] | 0.0937 µM | 0.055 µM
Cn1cnc(C(=O)N2CCC(CCCCNC(=O)c3ccc4nccn4c3)CC2)c1 [N-(4-{1-[(1-methyl-1H-imidazol-4-yl)carbonyl]piperidin-4-yl}butyl)imidazo[1,2-a]pyridine-6-carboxamide] | 0.0567 µM | 0.107 µM
Cn1c(C(=O)N2CCC(CCCCNC(=O)c3cc4cnccc4[nH]3)CC2)cc2ccccc21 [N-(4-{1-[(1-methyl-1H-indol-2-yl)carbonyl]piperidin-4-yl}butyl)-1H-pyrrolo[3,2-c]pyridine-2-carboxamide] | 0.134 µM | 0.0238 µM
Cn1c(C(=O)N2CCC(CCCCNC(=O)c3ccc4nccn4c3)CC2)cc2ccccc21 [N-(4-{1-[(1-methyl-1H-indol-2-yl)carbonyl]piperidin-4-yl}butyl)imidazo[1,2-a]pyridine-6-carboxamide] | 0.124 µM | 0.0551 µM
Cn1c(C(=O)N2CCC(CCCCNC(=O)c3cc4ccncc4s3)CC2)cc2ccccc21 [N-(4-{1-[(1-methyl-1H-indol-2-yl)carbonyl]piperidin-4-yl}butyl)thieno[2,3-c]pyridine-2-carboxamide] | 0.065 µM | 0.1 to 1 µM
O=C(NCCCCC1CCN(C(=O)c2cc3ccccc3[nH]2)CC1)c1cc2cnccc2[nH]1 [N-(4-{1-[(1H-indol-2-yl)carbonyl]piperidin-4-yl}butyl)-1H-pyrrolo[3,2-c]pyridine-2-carboxamide] | 0.125 µM | 0.0603 µM
O=C(NCCCCC1CCN(C(=O)c2cc3ccccc3[nH]2)CC1)c1ccc2nccn2c1 [N-(4-{1-[(1H-indol-2-yl)carbonyl]piperidin-4-yl}butyl)imidazo[1,2-a]pyridine-6-carboxamide] | 0.0616 µM | 0.1 to 1 µM
O=C(NCCCCC1CCN(C(=O)c2cc3ccccc3[nH]2)CC1)c1cc2ccncc2s1 [N-(4-{1-[(1H-indol-2-yl)carbonyl]piperidin-4-yl}butyl)thieno[2,3-c]pyridine-2-carboxamide] | 0.0335 µM | 0.1 to 1 µM
O=C(NCCCCC1CCN(C(=O)c2ccc3[nH]ccc3c2)CC1)c1cc2cnccc2[nH]1 [N-(4-{1-[(1H-indol-5-yl)carbonyl]piperidin-4-yl}butyl)-1H-pyrrolo[3,2-c]pyridine-2-carboxamide] | 0.0394 µM | 0.0135 µM
O=C(NCCCCC1CCN(C(=O)c2ccc3[nH]ccc3c2)CC1)c1ccc2nccn2c1 [N-(4-{1-[(1H-indol-5-yl)carbonyl]piperidin-4-yl}butyl)imidazo[1,2-a]pyridine-6-carboxamide] | 0.0195 µM | 0.0185 µM
O=C(NCCCCC1CCN(C(=O)c2ccc3[nH]ccc3c2)CC1)c1cc2ccncc2s1 [N-(4-{1-[(1H-indol-5-yl)carbonyl]piperidin-4-yl}butyl)thieno[2,3-c]pyridine-2-carboxamide] | 0.0427 µM | 0.0711 µM
